We go through three molecules from US20190255011A1, “INHIBITION OF TUMOUR CELL MIGRATION” (GW Pharma Limited, priority 2004, published 2019).

Data set [1] concerns U87 human glioma cells. The data set can be described thus: cell migration assay with pre-treatment by CB1 and CB2 receptor antagonists. The class given is cell-based. Particulars: antagonist 0.1 μM and 1 μM, 30 minutes pre-treatment, then CBD 6 μM. The method, then:
In order to determine whether the CBD-induced inhibition of cell migration as described in Example 1 above was dependant on the stimulation of these receptors the cell migration assay was performed with specific antagonists selective to CB1 and CB2 receptors. These are SR141716A and SR144528 respectively.
U87 human glioma cells were firstly pre-treated with the antagonists for 30 minutes and then treated with the CBD for an additional 30 minutes before seeding in the upper chamber of the Boyden chamber.
The cell migration assay was performed using a CBD concentration of 6 μM (shown in Example 1 to inhibit 50% migration. The CB1 and CB2 receptor antagonists were tested at concentrations of 0.1 μM and 1 μM, at these concentrations cell viability was not affected.

For data set [2], the system named is U87 human glioma cells. The data set can be described thus: cell migration assay in modified Boyden chamber. It counts as cell-based. The method, then: Cannabidiol (CBD) in the form of a botanical drug substance was dissolved in ethanol to a concentration of 100 mM this was stored at −20° C. until required.
Before use the CBD was further diluted with tissue culture medium to the desired concentration, ensuring that the concentration of ethanol was below 0.001%.
U87 human glioma cells were used throughout this experiment. The cells were maintained at 37° C. in a humidified atmosphere with 5% CO2 and 95% air.
Cells were cultured in a 75 cm^2 culture flask in Dulbecco's Modified Eagle Medium (DMEM), which had been supplemented with 4 mM L-glutamine, 100 units/ml penicillin, […], 1% sodium pyruvate, 1% non-essential amino acids and 10% heat-inactivated fetal bovine serum.
A cell migration assay was undertaken with the U87 cells in a 48 well, modified Boyden chamber in which upper and lower compartments were separated by a polycarbonate filter with a pore diameter of 8 μm coated with 15 μg/ml of fibronectin. Conditioned medium (CM) served as a chemoattractant. The CM was made by incubating a subconfluent culture of U87 cells with complete medium for 3 days.
The coated filter was placed over the bottom chamber, which contained the conditioned medium. Serum-free medium was used as a negative control.
U87 cells were treated with either CBD or vehicle for 30 minutes and then seeded in the upper chamber at a concentration of 3×10^4 cells per well and incubated for 6 hours at 37° C.
After the incubation the non-migrated cells on the upper surface of the filter were removed by scraping and the migrated cells on the lower side of the filter were stained with Diff-Quick Stain. Between 5 and 8 unit fields per filter were counted at 400× magnification.
As is shown in FIG. 1 cells were exposed to an increased concentration of CBD in a range starting from 0.01 μM to 9 μM and their migration was evaluated after 6 hours. The degree of inhibition of cell migration is expressed as a percentage of inhibition versus vehicle treatment (maximal stimulation).

The subject of data set [3] is U87 human glioma cells. The data set can be described thus: cell viability at the concentrations used in the migration assay. It counts as cell-based. The settings on record: range of CBD concentrations used (0.01 μM to 9 μM).
In data set [4] the test system is U87 human glioma cell line. Particulars: cited from earlier work.
In data set [5] the test system is U373 human glioma cell line. Particulars: cited from earlier work.
In data set [6] the test system is U87 human glioma cells subcutaneously implanted to nude mice. Particulars: cited from earlier work.

Broadly, the inhibition is how much of the control response was suppressed. Low readings indicate a response near the control, high ones a response far below the control.

As for `Cc1c(C(=O)NN2CCCCC2)nn(-c2ccc(Cl)cc2Cl)c1-c1ccc(Cl)cc1` [SR141716], in the data set on U87 human glioma cells [1], the “effect of antagonist pre-treatment on CBD-induced inhibition of migration” value is reported as “not prevented”.
Turning to SR144528, the “effect of antagonist pre-treatment on CBD-induced inhibition of migration” value with U87 human glioma cells [1] is recorded as “not prevented”.
On to `C=C(C)[C@@H]1CCC(C)=C[C@H]1c1c(O)cc(CCCCC)cc1O` [CBD, cannabidiol], for which, in the data set on U87 human glioma cells [2] (CBD added to culture medium of U87 cells), the inhibition of migration entry is recorded as “concentration-dependant inhibition of migration”. In the data set with U87 human glioma cells [2] (Homo sapiens, Glioma cell, CBD concentration of 6 μM), this molecule gave an inhibition at 6 µM of 50%. The IC50 with U87 human glioma cells [2] (Homo sapiens, U-87 MG, U87 cells, CBD 0.01 μM to 9 μM, migration evaluated after 6 hours, versus vehicle treatment, read-out: IC50 of inhibition of cell migration) worked out at 5.05 ± 1.1 µM. Further, in the data set with U87 human glioma cells [3], the cell viability entry is reported as “did not alter cell viability”. The anti-proliferative effects in-vitro entry in data set [4] and in data set [5] was “anti-proliferative effects” throughout. In addition, the anti-proliferative effects in-vivo entry in data set [6] is “anti-proliferative effects”.
